From paper PMC6384562, “Isolation of Two New Compounds and Other Constituents from Leaves of Piper crocatum and Study of Their Soluble Epoxide Hydrolase Activities” (Molecules, 2019)

Target: T1, soluble epoxide hydrolase (sEH) (Homo sapiens, UniProt P34913)
T1 construct: gene EPHX2
T1 sequence (P34913 1-555): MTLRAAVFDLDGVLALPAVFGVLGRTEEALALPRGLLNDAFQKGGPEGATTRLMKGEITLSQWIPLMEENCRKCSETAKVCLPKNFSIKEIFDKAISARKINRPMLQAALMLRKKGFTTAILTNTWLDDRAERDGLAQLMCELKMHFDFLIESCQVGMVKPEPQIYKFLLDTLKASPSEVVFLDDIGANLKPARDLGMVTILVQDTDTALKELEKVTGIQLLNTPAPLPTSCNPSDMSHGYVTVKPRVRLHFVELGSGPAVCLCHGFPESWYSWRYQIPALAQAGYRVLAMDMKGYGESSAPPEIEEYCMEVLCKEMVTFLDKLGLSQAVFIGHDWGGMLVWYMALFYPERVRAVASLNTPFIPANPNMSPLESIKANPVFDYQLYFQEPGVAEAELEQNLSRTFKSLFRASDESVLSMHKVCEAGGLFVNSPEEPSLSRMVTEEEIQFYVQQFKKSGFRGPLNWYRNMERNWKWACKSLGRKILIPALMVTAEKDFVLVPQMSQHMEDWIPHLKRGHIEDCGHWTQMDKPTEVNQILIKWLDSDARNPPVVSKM
Assay: fluorescence assay with recombinant human sEH and PHOME substrate
Format: biochemical

C=CCc1cc(OC)c(O[C@@H]2O[C@H](CO)[C@@H](O)[C@H](O)[C@H]2O)c(OC)c1 [compound 5, erigeside II]
IC50: 58.5 ± 0.5 µM
